Patent publication US6677433B2 (The Regents of the University of California, priority 2001, dated 2004)
Like-named read-outs stand apart in the source and are kept apart here.

B1: α-lactalbumin: purified milk allergen (protein, UniProt P00711 20-142, looked up)
Alpha-lactalbumin: EQLTKCEVFRELKDLKGYGGVSLPEWVCTTFHTSGYDTQAIVQNNDSTEYGLFQINNKIWCKDDQNPHSSNICNISCDKFLDDDLTDDIMCVKKILDKVGINYWLAHKALCSEKLDQWLCEKL
B2: Glutaredoxin: E. coli glutaredoxin with glutathione reductase, glutathione and NADPH (protein, UniProt P68688 1-85, looked up)
Glutaredoxin 1: MQTVIFGRSGCPYCVRAKDLAEKLSNERDDFQYQYVDIRAEGITKEDLQQKAGKPVETVPQIFVDQQHIGGYTDFAAWVKENLDA
modifications: with glutathione reductase, glutathione, NADPH

Columns and labels:
thioredoxin = thioredoxin (Escherichia coli, UniProt P0AA25)
Gliadins = test: Reductant specificity of gliadins (mBBr, native gel, densitometer); format: biochemical, durum wheat; parameters: Gliadin, % Relative Reduction, α / Gliadin, % Relative Reduction, β / Gliadin, % Relative Reduction, γ: concentration or dose not given beside the values; details: Thioredoxin = 100
Experimental: (§1) For isolation of insoluble storage proteins, semolina (0.2 g) was extracted sequentially with 1 ml of the following solutions for the indicated times at 25° C.; (1) 50 mM Tris-HCl, pH 7.5 (20 min); (2) 70% ethanol (2 hr); and (3) 0.1 M acetic acid (2 hr). During extraction, samples were placed on an electrical rotator and, in addition, occasionally agitated with a vortex mixer. After extraction with each solvent, samples were centrifuged (12,000 rpm for 5 min) in an Eppendorf microfuge and, supernatant fractions were saved for analysis. In between each extraction, pellets were washed with 1 ml of water, collected by centrifugation as before and the supernatant wash fractions were discarded. By convention, the fractions are designated: (1) albumin/globulin; (2) gliadin; and (3) glutenin.
(§2) Reactions were carried out in 100 mM Tris-HCl buffer, pH 7.9. As indicated, 0.7 μg NTR and 1 μg thioredoxin (both from E. coli unless specified otherwise) were added to 70 μl of this buffer containing 1 mM NADPH and 10 μg of target protein.
To resolve the different types of gliadins, native polyacrylamide gel electrophoresis was performed in 6% gels (a procedure designed to separate gliadins into the four types) as described by Bushuk and Zillman (Bushuk, W. et al. (1978), Can. J. Plant Sci. 58:505-515) and modified for vertical slab gels by Sapirstein and Bushuk (Sapirstein, H. D. et al. (1985), Cereal Chem. 62:372-377). A gel solution in 100 ml final volume contained 6.0 g acrylamide, 0.3 g bisacrylamide, 0.024 g ascorbic acid, 0.2 mg ferrous sulfate heptahydrate and 0.25 g aluminum lactate. The pH was adjusted to 3.1 with lactic acid. The gel solution was degassed for 2 hr. on ice and then 0.5 ml of 3% hydrogen peroxide was added as a polymerization catalyst. The running buffer, also adjusted to pH 3.1 with lactic acid, contained 0.5 g aluminum lactate per liter. Duration of electrophoresis was approximately 4 hr., with a constant current of 50 mA. Electrophoresis was terminated when the solvent front, marked with methyl green tracking dye, migrated to about 1 cm from the end of the gel.
(§3) The Polaroid negatives of fluorescent gels and prints of wet protein stained gels were scanned with a laser densitometer (Pharmacia-LKB UltroScan XL). Fluorescence was quantified by evaluating peak areas after integration with GelScan XL software.
The gliadin fraction is made up of four different protein types, designated α, β, γ and ω, which can be separated by native polyacrylamide gel electrophoresis under acidic conditions (Bushuk, W. et al. (1978), Can. J. Plant Sci. 58:505-515; Kasarda, D. D. et al. (1976), Adv. Cer. Sci. Tech. 1:158-236; Sapirstein, H. D. et al. (1985), Cereal Chem. 62:372-377; and Tatham, A. S. et al. (1990), Adv. Cer. Sci. Tech. 10:1-78). Except for the ω) gliadins, each species contains cystine (S—S) groups and thus has the potential for reduction by thioredoxin. In this study, following incubation with the indicated additions, proteins were derivatized with mBBr, and fluorescence was visualized after acidic-polyacrylamide gel electrophoresis. The lanes in the second gliadin gel in this study were as follows: 1. Control: no addition. 2. GSH: reduced glutathione. 3. GSH/GR/NADPH: reduced glutathione, glutathione reductase (from spinach leaves) and NADPH. 4. NGS: NADPH, reduced glutathione, glutathione reductase (from spinach leaves) and glutaredoxin (from E. coli). 5. NGS+NTS: combination of 4 and 6. 6. NTS: NADPH, NTR, and thioredoxin (both proteins from E. coli). 7. MET/T(Ec): β-mercaptoethanol and thioredoxin (E. coli). 8. DTT/T(Ec): DTT and thioredoxin (E. coli). 9. NTS(−T): same as 6 except without thioredoxin. 10. NGS+NTS,-Gliadin: same as 5 except without the gliadin fraction.

Glutenins = test: Reductant specificity of glutenins (mBBr/SDS-PAGE, densitometer); format: biochemical, durum wheat; parameters: concentration or dose not given beside the values
Experimental: as §1, §2
SDS-polyacrylamide electrophoresis of the mBBr-derivatized samples was performed in 15% gels at pH 8.5 as described by Laemmli, U.K. (1970), Nature 227:680-685. Gels of 1.5 mm thickness were developed for 16 hr. at a constant current of 9 mA.
as §3

castor seed 2S protein = format: biochemical, Ricinus communis
egg white proteins = test: Reduction of egg white proteins (mBBr/SDS-PAGE); format: biochemical, chicken; details: 1 hr at room temperature
Experimental: Dried chicken egg white was purchased from Sigma Chemical Co. About 80% of the total proteins in egg white are allergens. A solution of 20 mg/ml egg white was resuspended in PBS. Since not all the material was dissolved, it was centrifuged at 14,000 RPM for 2 min. The soluble egg white proteins were used for the reduction study using mBBr fluorescent labelling and SDS-polyacrylamide gel electrophoresis analysis. The treatments used were the control (no reductant), NTS, DTT plus thioredoxin, reduced glutathione (GSH) and reduced glutathione/glutathione reductase/NADPH. Reactions were carried out in PBS with 23 microliters of the soluble proteins from the 20 mg/ml egg white suspension in a final volume of 100 microliters. In the NTS, 7.5 mM NADPH, 2.4 micrograms thioredoxin and 2.1 micrograms NTR were used. When thioredoxin was reduced by DTT, NADPH and NTR were omitted and DTT was added to 1.5 mM. The GSH concentration used was 3 mM. For reduction by the GSH/GR/NADPH system, 3 mM GSH, 4 micrograms GR and 7.5 mM NADPH were used. The mixture was incubated for 1 hr at room temperature. After incubation, 7 microliters of 80 mM mBBr was added and the reaction continued for 15 min at room temperature. […] Samples were then analyzed by SDS-polyacrylamide gel electrophoresis.

pepsin = test: Pepsin assay in simulated gastric fluid; format: in vitro ADME, porcine; details: thioredoxin-reduced form in milk, SGF 37° C.
Experimental: BLG, 640 μg, or milk, 1 mg protein (i.e., about 30 μl), was incubated with or without the thioredoxin system (NTS) at either 4° C. […] The BLG, 320 μg, or milk, 500 μg protein, was then treated in 200 μl of simulated gastric fluid (SGF) as described by Astwood, J. D. et al. (1996), “Stability of food allergens to digestion in vitro”, Nature Biotechnol. 14:1269-1273. SGF consists of 0.32% pepsin (w/v) and 30 mM NaCl adjusted at pH 1.2 with HCl (Board of Trustees (ed.) 1995, Simulated Gastric Fluid, TS., pp. 2053 in the United States Pharmacopeia 23, The National Formulary 18. United States Pharmacopeial Convention, Inc. Rockville, Md.). The reaction mixture was incubated at 37° C. and stopped by adding 0.375-fold volume of 160 mM Na2CO3 (ca. pH 7) after 0, 0.25, 1, 2, 4, 8, 15, 30 and 60 min incubation. The protein mixture was then subjected to SDS-PAGE (15% gels) and stained for protein with Coomassie blue as described below. As indicated, the allergenicity of the digested samples was determined by skin test analysis.

atopic dogs = test: Feeding challenges with BLG, upper GI index; format: in vivo, dog
Experimental: Reduction of 80% pure BLG (a mixture of the A and B forms) was carried out for each dog in 100 ml of water. Each gram of BLG was treated by adding an aqueous mixture of 104 mg of NADPH, 1 mg of E. coli thioredoxin and 1 mg of E. coli NTR. The reactions occurred in a shaker at 125 rpm at 37° C. for 45 min. Samples were stored overnight at 4° C. The following day untreated (control) or treated BLG, 2.5 gm was mixed with a 12 oz. can of P/D food (Hills) and fed to a dog. Unchallenged animals received dog food alone without BLG while control animals received dog food with untreated BLG. Dogs were initially fed ¼ can of untreated food to initiate gastric flow. After 15 min, they were then fed at 3 intervals separated by 15 min ⅓ of a can of food that had been mixed with 2.5 g of either untreated or thioredoxin treated BLG. During these intervals dogs were monitored and their GI response assessed. Dogs were then observed and their response recorded at hourly intervals for the next 5 hr.
The digestion response of the food challenged dogs described above was assessed by assigning numbers to the timing, volume and fluidity of vomit induced by feeding. Fluidity: no vomit=0, solid vomit=1, liquid vomit=2, liquid with blood or bile vomit=3. Volume: no vomit=0, small vomit=1 and large vomit=2. Timing: delayed vomit=1, immediate vomit=2.

trypsin = test: Trypsin proteolysis of purified milk allergen proteins; format: biochemical; details: 2 μg trypsin
Experimental: The analysis of the reduction was done using the mBBr/SDS-PAGE techniques. Further in this study, when 10 μg of an NTS reduced purified milk allergen protein, β-lactoglobulin (Sigma Chemical Co.), was treated with 2 μg of trypsin, proteolysis was 100% as compared with only 50% for the identically trypsin treated oxidized β-lactoglobulin. […] However, 10 μg of purified […] reduced by the NTS was proteolyzed 80% by trypsin. Also 10 μg of α-lactalbumin reduced by 0.8 μg of thioredoxin and 0.5 mM DTT was 100% proteolyzed by 2 μg of trypsin.

Molecule | Gliadin, % Relative Reduction, Aggregate (proteins not entering the gel) (Gliadins) | Gliadin, % Relative Reduction, α (Gliadins) | Gliadin, % Relative Reduction, β (Gliadins) | Gliadin, % Relative Reduction, γ (Gliadins) | Glutenin, % Relative Reduction, 30-40 kDa (Glutenins; Thioredoxin = 100) | Glutenin, % Relative Reduction, 40-60 kDa (Glutenins; Thioredoxin = 100) | Glutenin, % Relative Reduction, 60-110 kDa (Glutenins; Thioredoxin = 100) | further results
erabutoxin b: short postsynaptic snake neurotoxin |  |  |  |  |  |  |  | reduction of the toxin (thioredoxin): significantly reduced
Thioredoxin: E. coli thioredoxin reduced by NADPH and NTR | 100.0% | 100.0% | 100.0% | 100.0% | 100% | 100% | 100% | 
N[C@@H](CCC(=O)N[C@@H](CS)C(=O)NCC(=O)O)C(=O)O [Glutathione, reduced glutathione, reference compound] | 60.1% | 36.4% | 68.1% | 60.6% |  |  |  | Glutenin, % Relative Reduction, 30-40 kDa (Glutenins): 29%; Glutenin, % Relative Reduction, 40-60 kDa (Glutenins): 51%; Glutenin, % Relative Reduction, 60-110 kDa (Glutenins): 31%; Relative Reduction (%) (castor seed 2S protein): 0%; effectiveness in reducing egg white proteins (egg white proteins): ineffective reductant
Treated: BLG reduced with NADPH, E. coli thioredoxin and NTR |  |  |  |  |  |  |  | time to digestion (pepsin): ≤ 60 s; Upper GI Index (atopic dogs; dog 6GCB1, Treated Exp. A, Control Exp. B): 0; Upper GI Index (atopic dogs; dog 6GCB3, BLG 2.5 g in dog food, Control Exp. A, Treated Exp. B): 0; Upper GI Index (atopic dogs; dog 6GCB4, Treated Exp. A, Control Exp. B): 6; Upper GI Index (atopic dogs; dog 6GCB6, Treated Exp. A, Control Exp. B): 0; Upper GI Index (atopic dogs; dog 6GCB7, Control Exp. A, Treated Exp. B): 3; gastric reflux that disappeared (atopic dogs; repeated feeding trials, on average): about 70%
B1 |  |  |  |  |  |  |  | proteolysis by trypsin (trypsin; 10 μg oxidized protein): no noticeable proteolysis; proteolysis by trypsin (trypsin; 10 μg protein reduced by 0.8 μg thioredoxin and 0.5 mM DTT): 100%
B2 | 61.5% | 43.5% | 83.3% | 79.7% | 40% | 72% | 50% | 
